Assay results as given in patent US20160346249A1 (priority 2012, published 2016).
Several values for one entry are separate records, joined by “and”; a condition that tells them apart may be missing. Equal entries are not always repeated. Where two headings read alike, the source gives them in different places.

How the values were obtained:
[1] = In vitro metabolism in human hepatocytes; details: male, human, 4 h, 87 μM
Method: Cryopreserved human hepatocytes (male) that are prepared by XenoTech, LLC (Lenexa, Kans.), are thawed on the day of use and resuspended in Waymouth's incubation media. The enzymatic activity of hepatocytes is monitored using 7-ethoxycoumarin and 7-hydroxycoumarin as substrates. […] The incubations are carried out for 4 hours with 1×10^6 viable cells/ml. […] At 0 and 4 hour, cell suspensions are extracted using two volumes of ice cold methanol. After centrifugation, the extracts are stored at −20° C. until further sample processing. The solvent in the samples are dried under a stream of nitrogen, and resuspended in methanol:water (1:1) before analysis.
The extracts of the 4 hour incubation mixture are analyzed by liquid chromatography/electrospray ionization-mass spectrometry (LC/ESI-MS) in the positive and negative ion modes to screen for possible metabolites. HPLC Methods 1 and 2 are used to find potential metabolites, and the HPLC and mass spectrometry systems are described in Table 56. The same instrumentation and methods in HPLC Method 1 are used in HPLC Method 2 with the exception that the mobile phases and gradient are changed to 0.4% HCOOH in H2O for mobile A and CH3OH for mobile phase B. The mass spectrometer is LCQ™ Ion Trap Mass Spectrometer and is in either the positive or negative electrospray mode with the ion spray set at 4.5 kV. The capillary temperature is 250° C., the nitrogen sheath gas flow rate is ˜80 unit, the auxiliary nitrogen gas flow rate is 20 unit, and the collision gas is helium.

[2] = Crl:CD-1(ICR) BR, mouse, in vivo
[3] = Single dose 300 mg / 450 mg pharmacokinetic, safety and tolerability study in healthy male and female subjects; details: for Cmax / half-life / Tmax / AUC(0-t) / concentration at 0 h / concentration at 0.5 h / concentration at 1 h / concentration at 2 h / concentration at 3 h / concentration at 4 h / concentration at 6 h / concentration at 8 h / concentration at 10 h / concentration at 12 h / concentration at 18 h / concentration at 24 h / concentration at […]: plasma; for Percent of Dose in Urine (0-24 hr) / Ratio DOV 216,298/DOV 21,947 in urine (0-24 hr): Mean (SD)
Description: Fourteen subjects, divided equally between males and females, were enrolled in the study and randomized between test article (5/sex) and placebo (2/sex). […] All subjects met the inclusion and exclusion criteria for entry into the study as detailed in the protocol and signed an informed consent form.
The subjects were confined to the clinical study site from Day −1 to the morning of Day 2, when they underwent a brief physical examination, clinical laboratory tests, and a physician visit before they were discharged. On Day 7, they reported to the clinical site again and were confined to the site until the morning of Day 9. At that time, they underwent a complete physical examination, clinical laboratory tests, and a physician's visit before they were discharged from the study. All subjects were fasted overnight on Days −1 and 7 from approximately 22:00 to approximately 4 hours post-dose on Days 1 and 8, at which time they received a standard lunch.
Subjects that received the placebo (2/sex) ingested six identical looking capsules with no drug. […] Capsules on both days were ingested with 240 mL water. […] Samples were collected into lithium heparin-containing Vacutainers® and centrifuged at approximately 3000 rpm to obtain the plasma fraction. The plasma was split into two polypropylene tubes and stored at −20° C. […] The urine volumes were recorded and an aliquot was stored for drug concentration measurements.
Validated LC/MS/MS assays were used for analyses; the assay range for both analytes in plasma and urine were 5.00 to 2000 ng/mL.
Plasma concentration-time data for each subject were analyzed with WinNonlin, version 4.1 (Pharsight Corporation, Mountain View, Calif.) using a non-compartmental model. […] Plasma concentrations listed as not detected (ND) or below the lower limit of quantitation (LLOQ) were set to zero. The values of Cmax and Tmax were the observed values for each subject. AUC0-t was determined using the linear trapezoidal rule whenever the concentration data were increasing and the logarithmic trapezoidal rule any time that the concentration data were decreasing. The apparent λz was calculated as the negative slope of the log-linear terminal portion of the blood concentration-time curve using linear regression. To allow for accurate calculation of λz, a minimum of three observations, selected by WinNonlin, was used. The t½ was calculated as ln 2/λz. AUC0-t was extrapolated to infinity (AUC0-∞) as follows: AUC0-∞=AUC0-t+Clast/λz where Clast is the last quantifiable concentration. The apparent oral clearance (CL/F) was calculated as Dose/AUC0-∞. The apparent oral volume of distribution (Vz/F) was calculated as Dose/λz×AUC0-∞. The mean residence time from time zero to infinity (MRT0-∞) was calculated as AUMC0-∞/AUC0-∞.

[4] = single oral 300 mg DOV 21,947 HCl IR
[5] = single oral 450 mg DOV 21,947 HCl IR

## O=C1NCC2(c3ccc(Cl)c(Cl)c3)CC12 (stereo not drawn) [EB-10101, 5-(3,4-dichloro-phenyl)-3-aza-bicyclo[3.1.0]hexan-2-one]
[1]
  share of the metabolites formed: about 63%
[2]
  AUC0-24 of metabolite relative to parent drug: 2-5 fold
[2]; 150 mg/kg/day
  AUC0-24 of metabolite relative to parent drug: ≤ 10 fold
[3]; 300 mg
  AUC24-∞ as share of total exposure: 38%
  concentration at 24 hr as % of Cmax: 50%
  ingested dose in urine as lactam (0-24 hr): 0.075%
[3]; 450 mg
  AUC24-∞ as share of total exposure: 54%
  concentration at 24 hr as % of Cmax: 65%
  ingested dose in urine as lactam (0-24 hr): 0.067%
[3]; both, human, oral, 300 mg
  Cmax: 2030 ng/mL
[3]; both, human, oral, 300 mg, harmonic mean of half-life of lactam
  half-life: 14.3 h
[3]; both, human, oral, 450 mg
  Cmax: 2950 ng/mL
  Tmax: 7.8 to 9 h
[3]; both, human, oral, 450 mg, harmonic mean of half-life of lactam
  half-life: 19.8 h
[3]; both, human, po, 300 mg
  AUC(0-t): 33300 ng·h/mL
  Cmax: 2030 ng/mL
  Tmax: 7.8 h
  concentration at 0 h: 0 ng/mL
  concentration at 0.5 h: 42.8 ng/mL
  concentration at 1 h: 296 ng/mL
  concentration at 2 h: 900 ng/mL
  concentration at 3 h: 1410 ng/mL
  concentration at 4 h: 1540 ng/mL
  concentration at 6 h: 1690 ng/mL
  concentration at 8 h: 1900 ng/mL
  concentration at 10 h: 1830 ng/mL
  concentration at 12 h: 1580 ng/mL
  concentration at 18 h: 1390 ng/mL
  concentration at 24 h: 1010 ng/mL
  concentration at […]: 1.52 ng/mL and 175 ng/mL and 473 ng/mL and 589 ng/mL
[3]; both, human, po, 300 mg, t½ (Harmonic mean), single oral 300 mg DOV 21,947 HCl IR, N = 10
  half-life: 14.3 h
[3]; both, human, po, 300 mg, t½, single oral 300 mg DOV 21,947 HCl IR, arithmetic mean, N = 10
  half-life: 15.4 h
[3]; both, human, po, 450 mg
  AUC(0-t): 50700 ng·h/mL
  Cmax: 2950 ng/mL
  Tmax: 9 h
  concentration at 0 h: 0 ng/mL
  concentration at 0.5 h: 71 ng/mL
  concentration at 1 h: 337 ng/mL
  concentration at 2 h: 1330 ng/mL
  concentration at 3 h: 1820 ng/mL
  concentration at 4 h: 2160 ng/mL
  concentration at 6 h: 2520 ng/mL
  concentration at 8 h: 2670 ng/mL
  concentration at 10 h: 2770 ng/mL
  concentration at 12 h: 2620 ng/mL
  concentration at 18 h: 2010 ng/mL
  concentration at 24 h: 1920 ng/mL
  concentration at […]: 0 ng/mL and 184 ng/mL and 646 ng/mL and 807 ng/mL
[3]; both, human, po, 450 mg, t½ (Harmonic mean), single oral 450 mg DOV 21,947 HCl IR, N = 10
  half-life: 19.8 h
[3]; both, human, po, 450 mg, t½, single oral 450 mg DOV 21,947 HCl IR, arithmetic mean, N = 10
  half-life: 32.6 h
[3]; female, human, po, 300 mg
  AUC(0-t): 37300 ng·h/mL
  Cmax: 2320 ng/mL
  Tmax: 9.2 h
  concentration at 0 h: 0 ng/mL
  concentration at 0.5 h: 22.8 ng/mL
  concentration at 1 h: 188 ng/mL
  concentration at 2 h: 760 ng/mL
  concentration at 3 h: 1340 ng/mL
  concentration at 4 h: 1600 ng/mL
  concentration at 6 h: 1870 ng/mL
  concentration at 8 h: 2210 ng/mL
  concentration at 10 h: 1980 ng/mL
  concentration at 12 h: 1760 ng/mL
  concentration at 18 h: 1690 ng/mL
  concentration at 24 h: 1190 ng/mL
  concentration at […]: 0 ng/mL and 111 ng/mL and 317 ng/mL and 426 ng/mL
[3]; female, human, po, 300 mg, t½ (Harmonic mean), single oral 300 mg DOV 21,947 HCl IR, N = 5
  half-life: 15 h
[3]; female, human, po, 300 mg, t½, single oral 300 mg DOV 21,947 HCl IR, N = 5, arithmetic mean
  half-life: 15.5 h
[3]; female, human, po, 450 mg
  AUC(0-t): 55300 ng·h/mL
  Cmax: 3360 ng/mL
  Tmax: 8.8 h
  concentration at 0 h: 0 ng/mL
  concentration at 0.5 h: 35.2 ng/mL
  concentration at 1 h: 285 ng/mL
  concentration at 2 h: 1030 ng/mL
  concentration at 3 h: 1650 ng/mL
  concentration at 4 h: 2180 ng/mL
  concentration at 6 h: 2710 ng/mL
  concentration at 8 h: 2990 ng/mL
  concentration at 10 h: 3030 ng/mL
  concentration at 12 h: 2930 ng/mL
  concentration at 18 h: 2140 ng/mL
  concentration at 24 h: 2390 ng/mL
  concentration at […]: 0 ng/mL and 155 ng/mL and 539 ng/mL and 660 ng/mL
[3]; female, human, po, 450 mg, t½ (Harmonic mean), single oral 450 mg DOV 21,947 HCl IR, N = 5
  half-life: 24.5 h
[3]; female, human, po, 450 mg, t½, single oral 450 mg DOV 21,947 HCl IR, N = 5, arithmetic mean
  half-life: 41.8 h
[3]; human, in vivo
  exposure to lactam greater than parent drug over 24 hr: approximately 70%
[3]; male, human, po, 300 mg
  AUC(0-t): 29200 ng·h/mL
  Cmax: 1740 ng/mL
  Tmax: 6.4 h
  concentration at 0 h: 0 ng/mL
  concentration at 0.5 h: 62.9 ng/mL
  concentration at 1 h: 404 ng/mL
  concentration at 2 h: 1040 ng/mL
  concentration at 3 h: 1490 ng/mL
  concentration at 4 h: 1470 ng/mL
  concentration at 6 h: 1520 ng/mL
  concentration at 8 h: 1590 ng/mL
  concentration at 10 h: 1670 ng/mL
  concentration at 12 h: 1410 ng/mL
  concentration at 18 h: 1100 ng/mL
  concentration at 24 h: 820 ng/mL
  concentration at […]: 3.03 ng/mL and 238 ng/mL and 629 ng/mL and 753 ng/mL
[3]; male, human, po, 300 mg, t½ (Harmonic mean), single oral 300 mg DOV 21,947 HCl IR, N = 5
  half-life: 13.7 h
[3]; male, human, po, 300 mg, t½, single oral 300 mg DOV 21,947 HCl IR, N = 5, arithmetic mean
  half-life: 15.3 h
[3]; male, human, po, 450 mg
  AUC(0-t): 46100 ng·h/mL
  Cmax: 2550 ng/mL
  Tmax: 9.2 h
  concentration at 0 h: 0 ng/mL
  concentration at 0.5 h: 107 ng/mL
  concentration at 1 h: 388 ng/mL
  concentration at 2 h: 1620 ng/mL
  concentration at 3 h: 1980 ng/mL
  concentration at 4 h: 2150 ng/mL
  concentration at 6 h: 2320 ng/mL
  concentration at 8 h: 2360 ng/mL
  concentration at 10 h: 2520 ng/mL
  concentration at 12 h: 2310 ng/mL
  concentration at 18 h: 1880 ng/mL
  concentration at 24 h: 1450 ng/mL
  concentration at […]: 0 ng/mL and 214 ng/mL and 752 ng/mL and 954 ng/mL
[3]; male, human, po, 450 mg, t½ (Harmonic mean), single oral 450 mg DOV 21,947 HCl IR, N = 5
  half-life: 16.6 h
[3]; male, human, po, 450 mg, t½, single oral 450 mg DOV 21,947 HCl IR, N = 5, arithmetic mean
  half-life: 23.4 h
[3]; single oral 300 mg DOV 21,947 HCl IR, Female, N = 5
  λz: 0.046^b hr^−1
[3]; single oral 300 mg DOV 21,947 HCl IR, Male, N = 5
  λz: 0.051 h⁻¹
[3]; [4]
  Percent of Dose in Urine (0-24 hr): 0.075 (0.024) Percent of Dose
  Ratio DOV 216,298/DOV 21,947 in urine (0-24 hr): 0.195 (0.092)
[3]; single oral 300 mg DOV 21,947 HCl IR, Period 0-1 hr
  Mean Amount in Urine: 0.0 µg
[3]; single oral 300 mg DOV 21,947 HCl IR, Period 1-2 hr
  Mean Amount in Urine: 2.7 µg
[3]; single oral 300 mg DOV 21,947 HCl IR, Period 2-4 hr
  Mean Amount in Urine: 52.5 µg
[3]; single oral 300 mg DOV 21,947 HCl IR, Period 4-8 hr
  Mean Amount in Urine: 56.2 µg
[3]; single oral 300 mg DOV 21,947 HCl IR, Period 8-12 hr
  Mean Amount in Urine: 34.8 µg
[3]; single oral 300 mg DOV 21,947 HCl IR, Period 12-24 hr
  Mean Amount in Urine: 47.8 µg
[3]; single oral 300 mg DOV 21,947 HCl IR, Total (0-24 hr)
  Mean Amount in Urine: 194 µg
[3]; single oral 300 mg DOV 21,947 HCl IR, mean, N = 10
  λz: 0.049^b hr^−1
[3]; single oral 450 mg DOV 21,947 HCl IR, Female, N = 5
  λz: 0.028 h⁻¹
[3]; single oral 450 mg DOV 21,947 HCl IR, Male, N = 5
  λz: 0.042 h⁻¹
[3]; [5]
  Percent of Dose in Urine (0-24 hr): 0.067 (0.035) Percent of Dose
  Ratio DOV 216,298/DOV 21,947 in urine (0-24 hr): 0.256 (0.173)
[3]; single oral 450 mg DOV 21,947 HCl IR, Period 0-1 hr
  Mean Amount in Urine: 0.0 µg
[3]; single oral 450 mg DOV 21,947 HCl IR, Period 1-2 hr
  Mean Amount in Urine: 2.1 µg
[3]; single oral 450 mg DOV 21,947 HCl IR, Period 2-4 hr
  Mean Amount in Urine: 45.2 µg
[3]; single oral 450 mg DOV 21,947 HCl IR, Period 4-8 hr
  Mean Amount in Urine: 89.3 µg
[3]; single oral 450 mg DOV 21,947 HCl IR, Period 8-12 hr
  Mean Amount in Urine: 61.2 µg
[3]; single oral 450 mg DOV 21,947 HCl IR, Period 12-24 hr
  Mean Amount in Urine: 63.5 µg
[3]; single oral 450 mg DOV 21,947 HCl IR, Total (0-24 hr)
  Mean Amount in Urine: 261 µg
[3]; single oral 450 mg DOV 21,947 HCl IR, mean, N = 10
  λz: 0.035 h⁻¹
